Assay results taken from patent US7432307B2, “Modulators of retinol-retinol binding protein (RBP)-transthyretin (TTR) complex formation” (Sirion Therapeutics, Inc., priority 2004, dated 2008).
Entries after “also recorded” stand apart in the source; their conditions may differ.

Key:
LRAT = molecular target: T1, LRAT (Homo sapiens, UniProt O95237); test: In vitro analyses of LRAT activity; assay type: biochemical; conditions: HPR pre-incubated with enzyme source material
T1 sequence (O95237 1-230): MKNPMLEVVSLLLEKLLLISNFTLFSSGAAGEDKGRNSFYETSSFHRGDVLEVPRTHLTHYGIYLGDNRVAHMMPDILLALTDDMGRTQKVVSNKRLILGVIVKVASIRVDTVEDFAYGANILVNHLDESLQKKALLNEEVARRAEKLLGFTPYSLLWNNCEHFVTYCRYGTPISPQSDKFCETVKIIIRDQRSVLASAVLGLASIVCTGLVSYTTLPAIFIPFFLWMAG

serum retinol and RBP = conditions: cited from earlier work; for reduction in circulating RBP and circulating retinol in vivo: literature (several investigators; Berni et al. 1993)
retinol-RBP-TTR complex = molecular target: T2, retinol-RBP-TTR complex (Homo sapiens, UniProt P02753); test: High-throughput FRET assay for detection of RBP/TTR interaction (Alexa430-TTR); assay type: binding; conditions: for inhibition of RBP-TTR interaction in high throughput assay: 384-well format, varied concentrations 0-4 μM, conditions of Example 7
T2 construct: purchased Sigma Chemical Co. (TTR only)
Description: Reduction of serum retinol and RBP are correlated with concomitant reductions in toxic lipofliscin fluorophores. Because compounds that affect RBP-TTR interaction will directly affect fluorophore levels in the eye, a high-throughput screen for small molecules which prevent interaction of RBP with TTR was developed. This screen employs probe-labeled forms of RBP and TTR which participate in a unique fluorescence resonance energy transfer (FRET) event when complexed. Compounds which interfere with RBP-TTR interaction prevent FRET. […] The sample is incubated at 37° C. for 30 min and then illuminated with 330 nm light. The emission spectra are shown in the range of 400-600 nm. HPR binds to RBP and prevents interaction with TTR, and here this property of HPR is utilized here to validate the ability of this screen to detect inhibition of RBP-TTR interaction. […] Additionally, the design of this assay permits discrimination between compounds which interact with RBP versus those which interact with TTR. Thus, by using two distinct excitation energies (280 nm and 330 nm, for protein and retinol, respectively) and implementing simultaneous monitoring of the retinol and TTR-probe fluorescence, the “target” of a presumptive small molecule can be easily determined.
In order to facilitate screening of large numbers of test compounds, the RBP-TTR assay has been adapted to a 384-well plate format. This transition required re-evaluation of the reagent concentrations and minimal assay volume for maintaining solubility and detection sensitivity. Under the 384-well plate format, the assay can be efficiently performed in a 50 μl volume using 0.5 μM apo-RBP, 0.5 μM TTR, 2-8 μM test compound and 1 μM retinol. The microplate with minimal fluorescence background, best optical clarity and most appropriate well design was determined to be Corning's model #3711.
Accordingly, HPR was employed at varied concentrations (from 0-4 μM), using the conditions specified in Example 7, to evaluate the high throughput assay.
The mechanism of action underlying this effect can be explained by the disruption of RBP-TTR interactions. In order to explore this possibility and to further validate the RBP-TTR screen, the effects of all-trans retinoic and 13-cis retinoic acid, using the conditions the conditions specified for analysis of HPR, were examined.

[1] = HPR administered to wild type mice for 5 days, illumination, then retinoids in serum and ocular tissue; assay type: in vivo; conditions: mouse, ocular tissue, ip, 20 mg/kg i.p. in DMSO, read-out: HPR accumulation within ocular tissues during the treatment period
Experimental: In order to ensure that the observed effects of HPR in ABCA4 null mice were not due to the genetic mutation, HPR (20 mg/kg, i.p. in DMSO) was administered to wild type mice for 5 days. Control mice received only the DMSO vehicle. On the final day of HPR treatment, the mice were exposed to constant illumination (1000 lux for 10 min) order “stimulate” the visual cycle to generate visual chromophore. Immediately following the illumination period, the animals were sacrificed and the concentrations of retinoids in serum and ocular tissue were determined. […] As in the previous study, HPR caused a significant reduction in serum retinol (˜55%), ocular retinol (˜40%) and ocular retinal (˜30%). Although HPR did accumulate within ocular tissues during the treatment period (˜5 μM), no effect on LRAT or Rpe65/isomerase activities was observed.

RBP-TTR interaction = RBP-TTR interaction (Homo sapiens, UniProt P02753); conditions: literature (Malpeli et al.; Holven et al.; Radu et al.); cited from earlier work
ABCA4 null mutant mice = test: HPR administered to ABCA4 null mutant mice for 28 days; serum retinol, ocular retinoids and A2E; assay type: in vivo
Experimental: In order to further explore the role of HPR in the visual cycle, the in vivo effects of HPR in mice have been examined. Thus, HPR was administered to ABCA4 null mutant mice (5-20 mg/kg, i.p. in DMSO) for periods of 28 days. Control mice received only the DMSO vehicle. At the end of the treatment period, the concentrations of retinol and HPR in serum and retinoid content in ocular tissues was measured. […] Thus, the calculated percent reduction for each of the measured retinoids, and A2E, was nearly identical (see FIG. 6). […] If systemically-administered HPR inhibits ocular LRAT, then reduction of ocular retinoids and A2E should exceed the reduction in serum retinol.
Genetic crosses of RBP4^−/− mice with ABCA4^−/− mice was undertaken to examine the role of RBP in mediation of retinol levels in serum and ocular tissue.

[2] = 5-20 mg/kg i.p. in DMSO, 28 days

| Structure (SMILES) | LRAT activity in vitro (LRAT) | reductions in serum retinol and RBP (serum retinol and RBP; literature (Formelli et al.; Torrisi et al.)) | reduction in circulating RBP and circulating retinol in vivo (serum retinol and RBP) | retinol and TTR-probe fluorescence (loss of complexation) (retinol-RBP-TTR complex; 1 μM HPR, 0.5 μM unlabeled RBP + 0.5 μM Alexa430-TTR, 37° C., 30 min, 330 nm excitation) | inhibition of RBP-TTR interaction in high throughput assay (retinol-RBP-TTR complex) | concentration at 5 days [1] [µM] | interaction of TTR with RBP in vitro (RBP-TTR interaction) | reductions in A2E (ABCA4 null mutant mice; [2]) | reductions in ocular retinoids (ABCA4 null mutant mice; [2]) | reductions in serum retinol as a function of increasing serum HPR (ABCA4 null mutant mice; [2]) | effect on visual cycle proteins (e.g., LRAT) when administered systemically (ABCA4 null mutant mice; systemic administration) |
| --- | --- | --- | --- | --- | --- | --- | --- | --- | --- | --- | --- |
| CC1=C(/C=C/C(C)=C/C=C/C(C)=C/C(=O)Nc2ccc(O)cc2)C(C)(C)CCC1 [HPR, N-(4-hydroxyphenyl)retinamide] | inhibition of LRAT activity | profound reductions | established in vivo | significantly reduced | inhibit RBP-TTR interaction | ~5 | interferes with the normal interaction of TTR with RBP; also recorded: effective inhibitor | commensurate reductions | commensurate reductions | Profound reductions | limited effect |
| CC1=C(/C=C/C(C)=C/C=C/C(C)=C/C(=O)O)C(C)(C)CCC1 [all-trans retinoic acid, all-trans-retinoic acid] |  |  | observed in vivo |  | entirely consistent with the in vivo data |  |  |  |  |  |  |
| CC1=C(/C=C/C(C)=C/C=C/C(C)=C\C(=O)O)C(C)(C)CCC1 [13-cis retinoic acid, 13-cis-retinoic acid] |  |  | observed in vivo |  | entirely consistent with the in vivo data |  |  |  |  |  |  |
